Data: ChEMBL document CHEMBL1201861, “Genomics of Drug Sensitity in Cancer screening data, Wellcome Trust Sanger Institute”

Key:
Test in all cases: cells
BT-474 = type: functional, cell-based, Homo sapiens; conditions: Homo sapiens, BT-474
Description: SANGER: Inhibition of human BT-474 cell growth in a cell viability assay.

LB771-HNC = type: functional, cell-based, Homo sapiens; conditions: Homo sapiens, LB771-HNC
Description: SANGER: Inhibition of human LB771-HNC cell growth in a cell viability assay.

LK-2 = type: functional, cell-based, Homo sapiens; conditions: Homo sapiens, LK-2
Description: SANGER: Inhibition of human LK-2 cell growth in a cell viability assay.

8305C = type: functional, cell-based, Homo sapiens; conditions: Homo sapiens, 8305C
Description: SANGER: Inhibition of human 8305C cell growth in a cell viability assay.

SK-N-AS = type: functional, cell-based, Homo sapiens; conditions: Homo sapiens, SK-N-AS
Description: SANGER: Inhibition of human SK-N-AS cell growth in a cell viability assay.

LS-123 = type: functional, cell-based, Homo sapiens; conditions: Homo sapiens, LS-123
Description: SANGER: Inhibition of human LS-123 cell growth in a cell viability assay.

A101D = type: functional, cell-based, Homo sapiens; conditions: Homo sapiens, A101D
Description: SANGER: Inhibition of human A101D cell growth in a cell viability assay.

RPMI-7951 = type: functional, cell-based, Homo sapiens; conditions: Homo sapiens, RPMI-7951
Description: SANGER: Inhibition of human RPMI-7951 cell growth in a cell viability assay.

HCC1187 = type: functional, cell-based, Homo sapiens; conditions: Homo sapiens, HCC1187
Description: SANGER: Inhibition of human HCC1187 cell growth in a cell viability assay.

ES1 = type: functional, cell-based, Homo sapiens; conditions: Homo sapiens, ES1
Description: SANGER: Inhibition of human ES1 cell growth in a cell viability assay.

T84 = type: functional, cell-based, Homo sapiens; conditions: Homo sapiens, T84
Description: SANGER: Inhibition of human T84 cell growth in a cell viability assay.

RPMI-8226 = type: functional, cell-based; conditions: Homo sapiens
Description: SANGER: Inhibition of human RPMI-8226 cell growth in a cell viability assay.

U-266 = type: functional, cell-based; conditions: Homo sapiens
Description: SANGER: Inhibition of human U-266 cell growth in a cell viability assay.

HCE-4 = type: functional, cell-based, Homo sapiens; conditions: Homo sapiens, HCE-4
Description: SANGER: Inhibition of human HCE-4 cell growth in a cell viability assay.

SK-UT-1 = type: functional, cell-based, Homo sapiens; conditions: Homo sapiens, SK-UT-1
Description: SANGER: Inhibition of human SK-UT-1 cell growth in a cell viability assay.

MSTO-211H = type: functional, cell-based, Homo sapiens; conditions: Homo sapiens, MSTO-211H
Description: SANGER: Inhibition of human MSTO-211H cell growth in a cell viability assay.

M14 = type: functional, cell-based, Homo sapiens; conditions: Homo sapiens, M14
Description: SANGER: Inhibition of human M14 cell growth in a cell viability assay.

HN = type: functional, cell-based, Homo sapiens; conditions: Homo sapiens, HN
Description: SANGER: Inhibition of human HN cell growth in a cell viability assay.

RO82-W-1 = type: functional, cell-based, Homo sapiens; conditions: Homo sapiens, RO82-W-1
Description: SANGER: Inhibition of human RO82-W-1 cell growth in a cell viability assay.

NCI-H2347 = type: functional, cell-based, Homo sapiens; conditions: Homo sapiens, NCI-H2347
Description: SANGER: Inhibition of human NCI-H2347 cell growth in a cell viability assay.

CAS-1 = type: functional, cell-based, Homo sapiens; conditions: Homo sapiens, CAS-1
Description: SANGER: Inhibition of human CAS-1 cell growth in a cell viability assay.

NB14 = type: functional, cell-based; conditions: Homo sapiens
Description: SANGER: Inhibition of human NB14 cell growth in a cell viability assay.

Becker = type: functional, cell-based, Homo sapiens; conditions: Homo sapiens, Becker
Description: SANGER: Inhibition of human Becker cell growth in a cell viability assay.

SK-N-FI = type: functional, cell-based, Homo sapiens; conditions: Homo sapiens, SK-N-FI
Description: SANGER: Inhibition of human SK-N-FI cell growth in a cell viability assay.

HOP-62 = type: functional, cell-based, Homo sapiens; conditions: Homo sapiens, HOP-62
Description: SANGER: Inhibition of human HOP-62 cell growth in a cell viability assay.

HuCCT-1 = type: functional, cell-based, Homo sapiens, HuCCT1; conditions: Homo sapiens, HuCCT-1
Description: SANGER: Inhibition of human HuCCT1 cell growth in a cell viability assay.

MKN-28 = type: functional, cell-based, Homo sapiens; conditions: Homo sapiens, MKN-28
Description: SANGER: Inhibition of human MKN28 cell growth in a cell viability assay.

CAMA-1 = type: functional, cell-based, Homo sapiens; conditions: Homo sapiens, CAMA-1
Description: SANGER: Inhibition of human CAMA-1 cell growth in a cell viability assay.

RPMI-2650 = type: functional, cell-based, Homo sapiens; conditions: Homo sapiens, RPMI-2650
Description: SANGER: Inhibition of human RPMI-2650 cell growth in a cell viability assay.

SW982 = type: functional, cell-based; conditions: Homo sapiens
Description: SANGER: Inhibition of human SW982 cell growth in a cell viability assay.

UACC-893 = type: functional, cell-based, Homo sapiens; conditions: Homo sapiens, UACC-893
Description: SANGER: Inhibition of human UACC-893 cell growth in a cell viability assay.

CAPAN-1 = type: functional, cell-based, Homo sapiens; conditions: Homo sapiens, CAPAN-1
Description: SANGER: Inhibition of human CAPAN-1 cell growth in a cell viability assay.

Panc1005 = type: functional, cell-based, Homo sapiens; conditions: Homo sapiens, Panc1005
Description: SANGER: Inhibition of human PANC-10-05 cell growth in a cell viability assay.

AGS = type: functional, cell-based, Homo sapiens; conditions: Homo sapiens, AGS
Description: SANGER: Inhibition of human AGS cell growth in a cell viability assay.

D-247MG = type: functional, cell-based, Homo sapiens; conditions: Homo sapiens, D-247MG
Description: SANGER: Inhibition of human D-247MG cell growth in a cell viability assay.

EW-11 = type: functional, cell-based, Homo sapiens; conditions: Homo sapiens, EW-11
Description: SANGER: Inhibition of human EW-11 cell growth in a cell viability assay.

SF-539 = type: functional, cell-based, Homo sapiens; conditions: Homo sapiens, SF-539
Description: SANGER: Inhibition of human SF539 cell growth in a cell viability assay.

MDA-MB-415 = type: functional, cell-based; conditions: Homo sapiens
AU565 = type: functional, cell-based, Homo sapiens; conditions: Homo sapiens, AU565
Description: SANGER: Inhibition of human AU565 cell growth in a cell viability assay.

NCI-H2342 = type: functional, cell-based; conditions: Homo sapiens
Description: SANGER: Inhibition of human NCI-H2342 cell growth in a cell viability assay.

P12-Ichikawa = type: functional, cell-based; conditions: Homo sapiens
SCC-4 = type: functional, cell-based, Homo sapiens; conditions: Homo sapiens, SCC-4
Description: SANGER: Inhibition of human SCC-4 cell growth in a cell viability assay.

ABC-1 = type: functional, cell-based, Homo sapiens; conditions: Homo sapiens, ABC-1
Description: SANGER: Inhibition of human ABC-1 cell growth in a cell viability assay.

EW-1 = type: functional, cell-based, Homo sapiens; conditions: Homo sapiens, EW-1
Description: SANGER: Inhibition of human EW-1 cell growth in a cell viability assay.

CAL-27 = type: functional, cell-based, Homo sapiens; conditions: Homo sapiens, CAL-27
Description: SANGER: Inhibition of human CAL-27 cell growth in a cell viability assay.

FaDu = type: functional, cell-based, Homo sapiens; conditions: Homo sapiens, FaDu
Description: SANGER: Inhibition of human FADU cell growth in a cell viability assay.

NY = type: functional, cell-based, Homo sapiens; conditions: Homo sapiens, NY
Description: SANGER: Inhibition of human NY cell growth in a cell viability assay.

NCI-H69 = type: functional, cell-based; conditions: Homo sapiens
Description: SANGER: Inhibition of human NCI-H69 cell growth in a cell viability assay.

NCI-H720 = type: functional, cell-based; conditions: Homo sapiens
Description: SANGER: Inhibition of human NCI-H720 cell growth in a cell viability assay.

JVM-2 = type: functional, cell-based; conditions: Homo sapiens
Description: SANGER: Inhibition of human JVM-2 cell growth in a cell viability assay.

HCC2218 = type: functional, cell-based; conditions: Homo sapiens
Description: SANGER: Inhibition of human HCC2218 cell growth in a cell viability assay.

## O=c1cc(-c2cccc3c2Sc2ccccc2S3)oc(N2CCOCC2)c1 [KU-55933]
BT-474
  IC50: > 10 µM
LB771-HNC
  IC50: > 10 µM
LK-2
  IC50: > 10 µM
8305C
  IC50: > 10 µM
SK-N-AS
  IC50: > 10 µM
LS-123
  IC50: > 10 µM
A101D
  IC50: > 10 µM
RPMI-7951
  IC50: > 10 µM
HCC1187
  IC50: > 10 µM
ES1
  IC50: > 10 µM
T84
  IC50: > 10 µM
RPMI-8226
  IC50: > 10 µM
U-266
  IC50: > 10 µM
HCE-4
  IC50: > 10 µM
SK-UT-1
  IC50: > 10 µM
MSTO-211H
  IC50: > 10 µM
M14
  IC50: > 10 µM
HN
  IC50: > 10 µM
RO82-W-1
  IC50: > 10 µM
NCI-H2347
  IC50: > 10 µM
CAS-1
  IC50: > 10 µM
NB14
  IC50: > 10 µM
Becker
  IC50: > 10 µM
SK-N-FI
  IC50: > 10 µM
HOP-62
  IC50: > 10 µM
HuCCT-1
  IC50: > 10 µM
MKN-28
  IC50: > 10 µM
CAMA-1
  IC50: > 10 µM
RPMI-2650
  IC50: > 10 µM
SW982
  IC50: > 10 µM
UACC-893
  IC50: > 10 µM
CAPAN-1
  IC50: > 10 µM
Panc1005
  IC50: > 10 µM
AGS
  IC50: > 10 µM
D-247MG
  IC50: > 10 µM
EW-11
  IC50: > 10 µM
SF-539
  IC50: > 10 µM
MDA-MB-415
  IC50: > 10 µM
AU565
  IC50: > 10 µM
NCI-H2342
  IC50: > 10 µM
P12-Ichikawa
  IC50: > 10 µM
SCC-4
  IC50: > 10 µM
ABC-1
  IC50: > 10 µM
EW-1
  IC50: > 10 µM
CAL-27
  IC50: > 10 µM
FaDu
  IC50: > 10 µM
NY
  IC50: > 10 µM

## COc1ccc(C2=N[C@@H](c3ccc(Cl)cc3)[C@@H](c3ccc(Cl)cc3)N2C(=O)N2CCNC(=O)C2)c(OC(C)C)c1 [NUTLIN-3]
BT-474
  IC50: > 8 µM
LB771-HNC
  IC50: > 8 µM
LK-2
  IC50: > 8 µM
8305C
  IC50: > 8 µM
SK-N-AS
  IC50: > 8 µM
LS-123
  IC50: > 8 µM
A101D
  IC50: 2.35 µM
RPMI-7951
  IC50: > 8 µM
HCC1187
  IC50: > 8 µM
ES1
  IC50: > 8 µM
T84
  IC50: > 8 µM
RPMI-8226
  IC50: > 8 µM
U-266
  IC50: > 8 µM
HCE-4
  IC50: > 8 µM
NCI-H69
  IC50: > 8 µM
SK-UT-1
  IC50: > 8 µM
MSTO-211H
  IC50: 2.57 µM
NCI-H720
  IC50: > 8 µM
JVM-2
  IC50: > 8 µM
M14
  IC50: > 8 µM
HN
  IC50: > 8 µM
RO82-W-1
  IC50: > 8 µM
NCI-H2347
  IC50: > 8 µM
CAS-1
  IC50: > 8 µM
NB14
  IC50: > 8 µM
Becker
  IC50: > 8 µM
SK-N-FI
  IC50: > 8 µM
HuCCT-1
  IC50: > 8 µM
MKN-28
  IC50: > 8 µM
CAMA-1
  IC50: > 8 µM
RPMI-2650
  IC50: 7.94 µM
SW982
  IC50: 3.51 µM
UACC-893
  IC50: > 8 µM
CAPAN-1
  IC50: > 8 µM
Panc1005
  IC50: > 8 µM
AGS
  IC50: 6.15 µM
D-247MG
  IC50: 4.75 µM
EW-11
  IC50: > 8 µM
SF-539
  IC50: > 8 µM
MDA-MB-415
  IC50: > 8 µM
AU565
  IC50: > 8 µM
HCC2218
  IC50: 7.63 µM
NCI-H2342
  IC50: > 8 µM
P12-Ichikawa
  IC50: > 8 µM
SCC-4
  IC50: > 8 µM
ABC-1
  IC50: > 8 µM
EW-1
  IC50: > 8 µM
CAL-27
  IC50: > 8 µM
FaDu
  IC50: > 8 µM
NY
  IC50: > 8 µM

## C=CCNC1=C2C[C@@H](C)C[C@H](OC)[C@H](O)[C@@H](C)/C=C(\C)[C@H](OC(N)=O)[C@@H](OC)/C=C\C=C(/C)C(=O)NC(=CC1=O)C2=O [TANESPIMYCIN]
BT-474
  IC50: 0.045 µM
LB771-HNC
  IC50: > 1 µM
LK-2
  IC50: 0.183 µM
8305C
  IC50: 0.725 µM
SK-N-AS
  IC50: > 1 µM
LS-123
  IC50: > 1 µM
A101D
  IC50: 0.481 µM
RPMI-7951
  IC50: 0.00717 µM
HCC1187
  IC50: > 1 µM
ES1
  IC50: > 1 µM
T84
  IC50: > 1 µM
RPMI-8226
  IC50: 0.663 µM
U-266
  IC50: > 1 µM
HCE-4
  IC50: 0.474 µM
NCI-H69
  IC50: 0.976 µM
SK-UT-1
  IC50: 0.0318 µM
MSTO-211H
  IC50: 0.558 µM
NCI-H720
  IC50: 0.0255 µM
JVM-2
  IC50: > 1 µM
M14
  IC50: 0.0791 µM
HN
  IC50: 0.0427 µM
RO82-W-1
  IC50: 0.397 µM
NCI-H2347
  IC50: 0.148 µM
CAS-1
  IC50: > 1 µM
NB14
  IC50: > 1 µM
Becker
  IC50: 0.0389 µM
SK-N-FI
  IC50: > 1 µM
HOP-62
  IC50: 0.499 µM
HuCCT-1
  IC50: 0.323 µM
MKN-28
  IC50: 0.666 µM
CAMA-1
  IC50: 0.129 µM
RPMI-2650
  IC50: > 1 µM
SW982
  IC50: 0.03 µM
UACC-893
  IC50: 0.637 µM
CAPAN-1
  IC50: 0.248 µM
Panc1005
  IC50: 0.412 µM
AGS
  IC50: 0.0194 µM
D-247MG
  IC50: 0.0945 µM
EW-11
  IC50: > 1 µM
SF-539
  IC50: 0.0668 µM
MDA-MB-415
  IC50: 0.708 µM
AU565
  IC50: > 1 µM
HCC2218
  IC50: 0.0249 µM
NCI-H2342
  IC50: > 1 µM
P12-Ichikawa
  IC50: > 1 µM
SCC-4
  IC50: 0.178 µM
ABC-1
  IC50: > 1 µM
EW-1
  IC50: > 1 µM
CAL-27
  IC50: 0.19 µM
FaDu
  IC50: 0.00209 µM
NY
  IC50: > 1 µM
